Where a SMILES comes first, the peptide text is derived from it. [ ]: non-standard residue; d: D form. The star is where a group is joined. Phe(4-F) = N[C@@H](Cc1ccc(F)cc1)C(=O)O; 2Nal = N[C@@H](Cc1ccc2ccccc2c1)C(=O)O; Cha = N[C@@H](CC1CCCCC1)C(=O)O; Aib = CC(C)(N)C(=O)O; Bz = O=C(c1ccccc1)*
Assays:
[1] = target: T1, human Y2R (Homo sapiens, UniProt P49146); assay: biochemical; type: biochemical
T1 sequence (P49146 1-381): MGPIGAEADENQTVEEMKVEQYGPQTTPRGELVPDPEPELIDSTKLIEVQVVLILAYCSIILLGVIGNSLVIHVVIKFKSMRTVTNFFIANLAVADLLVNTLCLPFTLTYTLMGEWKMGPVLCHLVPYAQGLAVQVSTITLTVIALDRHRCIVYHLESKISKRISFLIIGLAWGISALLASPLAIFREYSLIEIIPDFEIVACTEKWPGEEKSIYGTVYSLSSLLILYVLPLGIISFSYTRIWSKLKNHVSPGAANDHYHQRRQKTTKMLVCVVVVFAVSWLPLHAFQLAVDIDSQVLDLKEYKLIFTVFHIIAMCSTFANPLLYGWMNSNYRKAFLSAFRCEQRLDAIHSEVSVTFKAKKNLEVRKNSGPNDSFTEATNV

[2] = test system: male C57BL/6J mice; assay: Food intake assay, bolus ip administration in lean mice; type: in vivo, mouse; settings: 3 h after administration, vs saline, mean ± SD
[3] = target: T1, human Y2R; assay: biochemical; type: binding
[4] = Stability in 20% mouse serum/PBS; type: in vitro ADME; settings: mouse, 20% mouse serum in PBS
[5] = Pharmacokinetics of PYY analogues in mice; type: in vivo; settings: C57BL/6J, mouse, plasma, 1 mg/kg

| Structure (SMILES) | EC50 [1] [nM] | % food intake inhibition ([2]; bolus ip 500 nmol/kg) [%] | % food intake inhibition ([2]; bolus ip 1000 nmol/kg) [%] | IC50 [3] [nM] | remaining at 0.5 h [4] [%] | % food intake inhibition ([2]; bolus ip 250 nmol/kg) [%] | % food intake inhibition ([2]; bolus ip 2000 nmol/kg) [%] | Cmax ([5]; ip) [nM] | MRT ([5]; ip) [min] | Tmax ([5]; ip) [min] | bioavailability ([5]; ip) [%] | MRT ([5]; iv) [min] | Vd ([5]; iv) [L/kg] | clearance ([5]; iv) [mL/min/kg] |
| --- | --- | --- | --- | --- | --- | --- | --- | --- | --- | --- | --- | --- | --- | --- |
| CC[C@H](C)[C@H](NC(=O)[C@H](CC1CCCCC1)NC(=O)[C@H](Cc1c[nH]cn1)NC(=O)[C@H](CCCNC(=N)N)NC(=O)c1ccccc1)C(=O)N[C@@H](CC(N)=O)C(=O)N[C@@H](Cc1ccc(F)cc1)C(=O)N[C@H](C(=O)N[C@H](C(=O)N[C@@H](CCCNC(=N)N)C(=O)N[C@@H](CCC(N)=O)C(=O)N[C@@H](CCCNC(=N)N)C(=O)N[C@@H](CC1CCCCC1)C(N)=O)[C@@H](C)O)[C@@H](C)CC [Compound 6] (Bz-RH[Cha]IN[Phe(4-F)]ITRQR[Cha]-NH2) | 2.9 | 18 ± 5 | 40 ± 5 | 11 | 96 | – | – | – | – | – | – | – | – | – |
| CC[C@H](C)[C@H](NC(=O)[C@H](CC1CCCCC1)NC(=O)[C@H](Cc1c[nH]cn1)NC(=O)[C@H](CCCNC(=N)N)NC(=O)c1ccccc1)C(=O)N[C@@H](CC(N)=O)C(=O)N[C@@H](CC(C)C)C(=O)N[C@@H](CC1CCCCC1)C(=O)N[C@H](C(=O)N[C@@H](CCCNC(=N)N)C(=O)N[C@@H](CCC(N)=O)C(=O)N[C@@H](CCCNC(=N)N)C(=O)N[C@@H](CC1CCCCC1)C(N)=O)[C@@H](C)O [Compound 8] (Bz-RH[Cha]INL[Cha]TRQR[Cha]-NH2) | 7.3 | 17 ± 8 | 46 ± 8 | 25 | 114 | – | – | – | – | – | – | – | – | – |
| CC[C@H](C)[C@H](NC(=O)[C@H](CC1CCCCC1)NC(=O)[C@H](Cc1c[nH]cn1)NC(=O)[C@H](CCCNC(=N)N)NC(=O)c1ccccc1)C(=O)N[C@@H](CC(N)=O)C(=O)N[C@@H](CC(C)C)C(=O)NC(C)(C)C(=O)N[C@H](C(=O)N[C@@H](CCCNC(=N)N)C(=O)N[C@@H](CCC(N)=O)C(=O)N[C@@H](CCCNC(=N)N)C(=O)N[C@@H](CC1CCCCC1)C(N)=O)[C@@H](C)O [Compound 10] (Bz-RH[Cha]INL[Aib]TRQR[Cha]-NH2) | 1.1 | 8 ± 7 | 39 ± 3 | 4.8 | 94 | 3 ± 4 | 60 ± 7 | – | – | – | – | – | – | – |
| CC[C@H](C)[C@H](NC(=O)[C@H](CC1CCCCC1)NC(=O)[C@H](Cc1c[nH]cn1)NC(=O)[C@H](CCCNC(=N)N)NC(=O)c1ccccc1)C(=O)N[C@@H](CC(N)=O)C(=O)N[C@@H](Cc1c[nH]c2ccccc12)C(=O)NC(C)(C)C(=O)N[C@H](C(=O)N[C@@H](CCCNC(=N)N)C(=O)N[C@@H](CCC(N)=O)C(=O)N[C@@H](CCCNC(=N)N)C(=O)N[C@@H](CC1CCCCC1)C(N)=O)[C@@H](C)O [Compound 11] (Bz-RH[Cha]INW[Aib]TRQR[Cha]-NH2) | 2.4 | 12 ± 3 | 36 ± 8 | 11 | 95 | – | 52 ± 5 | – | – | – | – | – | – | – |
| CC[C@H](C)[C@H](NC(=O)[C@H](CC1CCCCC1)NC(=O)[C@H](Cc1c[nH]cn1)NC(=O)[C@H](CCCNC(=N)N)NC(=O)c1ccccc1)C(=O)N[C@@H](CC(N)=O)C(=O)N[C@@H](Cc1c[nH]c2ccccc12)C(=O)N[C@@H](CCCCN)C(=O)N[C@H](C(=O)N[C@@H](CCCNC(=N)N)C(=O)N[C@@H](CCC(N)=O)C(=O)N[C@@H](CCCNC(=N)N)C(=O)N[C@@H](CC1CCCCC1)C(N)=O)[C@@H](C)O [Compound 12] (Bz-RH[Cha]INWKTRQR[Cha]-NH2) | 0.84 | – | 4 ± 13 | 2.4 | 51 | – | – | – | – | – | – | – | – | – |
| CC[C@H](C)[C@H](NC(=O)[C@H](Cc1ccc2ccccc2c1)NC(=O)[C@H](Cc1c[nH]cn1)NC(=O)[C@H](CCCNC(=N)N)NC(=O)c1ccccc1)C(=O)N[C@@H](CC(N)=O)C(=O)N[C@@H](Cc1c[nH]c2ccccc12)C(=O)N[C@H](C(=O)N[C@H](C(=O)N[C@@H](CCCNC(=N)N)C(=O)N[C@@H](CCC(N)=O)C(=O)N[C@@H](CCCNC(=N)N)C(=O)N[C@@H](CC1CCCCC1)C(N)=O)[C@@H](C)O)[C@@H](C)CC [Compound 15] (Bz-RH[2Nal]INWITRQR[Cha]-NH2) | 7.3 | 19 ± 7 | – | 19 | 100 | – | – | – | – | – | – | – | – | – |
| CC(C)C[C@H](NC(=O)[C@H](CC(N)=O)NC(=O)[C@H](CC1CCCCC1)NC(=O)[C@H](CC1CCCCC1)NC(=O)[C@H](Cc1cnc[nH]1)NC(=O)[C@H](CCCNC(=N)N)NC(=O)c1ccccc1)C(=O)NC(C)(C)C(=O)N[C@H](C(=O)N[C@@H](CCCNC(=N)N)C(=O)N[C@@H](CCC(N)=O)C(=O)N[C@@H](CCCNC(=N)N)C(=O)N[C@@H](CC1CCCCC1)C(N)=O)[C@@H](C)O [Compound 21, benzoyl-[Cha^27,28,36,Aib^31]PYY(25–36)] (Bz-RH[Cha][Cha]NL[Aib]TRQR[Cha]-NH2) | – | – | – | – | – | – | – | 406 | 75 | 15 | 6.8 | 27 | 0.073 | 2.7 |
